Laboratory results: paper PMC3066212, “Functional Divergence among Silkworm Antimicrobial Peptide Paralogs by the Activities of Recombinant Proteins and the Induced Expression Profiles” (PLoS ONE, 2011)

Experiments:
[1] = test system: S. aureus; assay: Ultrasensitive radial diffusion; format: cell-based, Staphylococcus aureus; conditions: 5 µmol/L, 10 µL, 37°C 24 h (Fig. 3)
Procedure: Figure 3 The antimicrobial spectrum of paralogs among each AMP gene family. The following microbes were used to test antimicrobial activities: Gram-positive bacteria: S. aureus (Sa), B. bombysepticus (Bb), B. subtilis (Bs), B. thuringiensis (Bt), B. thuringiensis subsp. galleriae (Btsg); Gram-negative bacteria: E. coli (Ec), S. marcescens (Sm), P. aeruginosa (Pa), X. pv. campestris (Xpc), R. dolaanacearum (Rd). Each sample (5 µmol/L, 10 µL) was dropped into the 2.7 mm pore on LB-medium plates and incubated at 37°C for 24 h as shown in Figure S3 for moricin family. The measure unit is millimeter (mm). […] Differences were significant at *P<0.01 among each recombinant AMP family.
B. mori strain Dazao was from the Sericulture & Agri-Food Research Institute, Guangdong Academy of Agricultural Sciences, China. E. coli Rosetta™(DE3) strain was used to express recombinant AMPs. […]
Antimicrobial activity of purified expression products was assayed using the ultrasensitive radial diffusion method and the MICs method seeded with Gram-negative or Gram-positive bacteria. […] The size of the clear area around the bacteria was measured, as shown in Figure S3 for the moricin family. […] Absorbance at 595 nm was measured and was repeated three times, and the MICs determined when the average absorbance was equal to the control sample.

[2] = test system: ten tested bacteria (five Gram-positive, five Gram-negative); assay: Ultrasensitive radial diffusion, antimicrobial spectrum; format: cell-based; conditions: 5 µmol/L, 10 µL in 2.7 mm pore on LB-medium plates, 37°C 24 h, n = 3 (Fig. 3)
[3] = test system: X. pv. campestris; assay: Ultrasensitive radial diffusion; format: cell-based, Xanthomons pv. campestris; conditions: 5 µmol/L, 10 µL, 37°C 24 h (Fig. 3)
[4] = test system: R. dolaanacearum; format: cell-based, Ralstonia dolaanacearum

| Substance | antimicrobial activity against S. aureus [1] | antimicrobial spectrum among the ten tested bacteria [2] | antimicrobial activity against X. pv. campestris [3] | Minimal growth inhibition concentration (MIC), R. dolaanacearum [4] [µM] |
| --- | --- | --- | --- | --- |
| MNFAKILSFVFALVLALSMTSAAPEPRWKIFKKIEKMGRNIRDGIVKAGPAIEVLGSAKAIGK [BmcecB6, recombinant silkworm cecropin paralog representing B subtype, two extra N-terminal residues (Ala-Met)] | not inhibited | eight of ten tested bacteria | not inhibited | – |
| MNFSRALFYVFAVFLVCASVMAAPEPRWKIFKKIEKVGQNIRDGIIKAGPAVAVVGQAATIAHGK [BmcecE, recombinant silkworm cecropin paralog, E subtype, two extra N-terminal residues (Ala-Met)] | – | five of ten tested bacteria | – | – |
| MNFVKILCVVLALMLALSMASAALEPKRKVFKIIEKIGRNVRGGVITAGPAVVVVGQAASVGM [BmcecC, recombinant silkworm cecropin paralog, C subtype, two extra N-terminal residues (Ala-Met)] | – | no ability to inhibit the growth | – | – |
| MDFLKYFIVVLVALSLMVCSGQADPKIP--VKSLKKGGKIIAKGFKVLTAAGTAHEVYSHVRNRGNQG [BmmorLA1, recombinant silkworm moricin-like A1, two extra N-terminal residues (Ala-Met)] | – | – | – | 1.25 |
| MNFVRILSFVFALVLALGAVSAAPEPRWKLFKKIEKVGRNVRDGLIKAGPAIAVIGQAKSLGK [BmcecA1, recombinant silkworm cecropin paralog, A subtype, EK-digested, two extra N-terminal residues (Ala-Met)] | – | five of ten tested bacteria | – | – |
| MNILKLFLVFMVAMSLVSCSTAAPAKIP--IKAIKTVGKAVGKGLRAINIASTANDVFNFLKPKKRKH [Bmmor, recombinant silkworm moricin, two extra N-terminal residues (Ala-Met)] | – | nine of ten tested bacteria | – | 1.25 |
